Experimental data: article PMC10822168, “Development of potent isoflavone-based formyl peptide receptor 1 (FPR1) antagonists and their effects in gastric cancer cell models” (European journal of medicinal chemistry, 2023)
Where two headings read alike, the source gives them in different places.

How the values were obtained:
in vitro = conditions: rat, pH 7.4
human FPR1 = target: T1, human FPR1 (Homo sapiens, UniProt P21462); experiment: Antagonist effect on Ca2+ mobilization in FPR1-HL60 transfected cells; conditions: inhibition of Ca2+ mobilization induced by 5 nM fMLF, N.A. = Not Active; for IC50: read-out: FPR1-HL60 (IC50)
T1 sequence (P21462 1-350): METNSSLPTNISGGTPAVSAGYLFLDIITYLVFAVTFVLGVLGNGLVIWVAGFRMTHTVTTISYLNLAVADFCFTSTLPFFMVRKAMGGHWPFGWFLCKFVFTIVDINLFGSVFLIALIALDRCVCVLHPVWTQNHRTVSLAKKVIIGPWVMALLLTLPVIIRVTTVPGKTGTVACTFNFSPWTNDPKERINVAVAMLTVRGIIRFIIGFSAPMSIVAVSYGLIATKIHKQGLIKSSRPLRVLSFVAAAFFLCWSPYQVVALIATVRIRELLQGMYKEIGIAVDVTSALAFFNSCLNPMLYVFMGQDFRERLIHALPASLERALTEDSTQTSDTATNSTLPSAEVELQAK

AGS cells = experiment: MTT viability assay in AGS cells; assay type: cell-based; conditions: Homo sapiens
Description: (§1) We decided to study, for the first time, the effect of pharmacological blockade of FPR1 on cell proliferation, cell migration, and angiogenesis in GC by using our antagonists 24a and 25a. We first assessed the expression levels of FPR1 and FPR2 mRNA in four GC cell lines, i.e., HGC27, derived from human gastric carcinoma, KATOIII, AGS, and NCl–N87, derived from human gastric adenocarcinoma. […] We first assessed the effect of compounds 24a and 25a on cell viability in both cell lines at 24, 48, and 72 h using the MTT assay (Table 2).
(§2) AGS and NCl–N87 human gastric cancer cell lines were purchased and authenticated by American Type Culture Collection (Manassas, Virginia, USA). All cell culture components were purchased from Sigma-Aldrich (Milan, Italy) and Celbio s.r.l. (Milano, Italy).
(§3) AGS and NCl–N87 human gastric cancer cell lines were grown in RPMI high glucose supplemented with 10% fetal bovine serum, 2 mM glutamine, 100 U/mL penicillin, 100 μg/mL streptomycin, in a humidified incubator at 37 °C with a 5% CO2 atmosphere.
(§4) Determination of cell growth was performed using the MTT assay at 24h, 48 h, and 72 h. On day 1, 5000 cells/well were seeded into 96-well plates in a volume of 100 μL. On day 2, the test compound was added at different concentrations. In all the experiments, the solvent used to dissolve the drug (ethanol, DMSO) was added in each control to evaluate possible cytotoxicity. After the established incubation time with drugs, MTT (0.5 mg/mL) was added to each well. Following 3 h incubation at 37 °C, the supernatant was removed. The formazan crystals were solubilized using 100 μL of DMSO and the absorbance values at 570 and 630 nm were determined on a Victor 3 microplate reader (PerkinElmer).

NCl–N87 cells [1] = experiment: MTT viability assay in NCl–N87 cells; assay type: cell-based; conditions: Homo sapiens
Description: as §1, §2, §3, §4

VEGFA mRNA = experiment: Real-time PCR of VEGFA mRNA expression in NCl–N87 and AGS cells; assay type: cell-based, human; conditions: 24 h, fMLF 10 nM, antagonists 1 or 2 μM, normalized to GAPDH, untreated = 1
Description: (§5) It has been reported that FPR1 can exert a tumor suppressor function in human GC by inhibiting angiogenesis and that silencing of the receptor increases the constitutive proangiogenic potential of GC cells. Therefore, we assessed the effect of 24a and 25a on the mRNA expression level and secretion of the proangiogenic factors, the vascular growth factor A (VEGFA), and the angiopoietin 2. […] These effects were more pronounced in NCl–N87 cells and resulted more strongly for 25a than 24a. The values obtained after each treatment were normalized to the expression of GAPDH and compared to the reference value of the two genes in untreated cells, which were set equal to 1 (Fig. 9).
(§6) Fig. 9. Effect of 24a and 25a on mRNA expression of VGFA and ANGPT2 in NCl–N87 and AGS cell lines. Real-time PCR experiments in NCl–N87 and AGS cells with specific primers for VEGFA and ANGPT2 genes. The mRNA expression was normalized on the GAPDH housekeeping gene. Expression analysis was performed after treatment with fMLF (10 nM) and 24a or 25a (1, 2, 5 μM) administrated alone or combining the lowest dose of 24a or 25a with fMLF. All expression values were calculated against the value of untreated PTX-sensitive cells, set equal to 1. Statistical analysis was assessed by comparing the values obtained using single drug treatment to those of corresponding untreated cells and the combined treatments to those of single treatments. The values of untreated PTX-resistant cells were compared with those of untreated PTX-sensitive ones. Data were mean ± SD (n = 3). *p < 0.05, **p < 0.001, ***p < 0.0002, ****p < 0.0001.
(§7) Total RNA was extracted from FPR1 antagonist-treated NCl–N87 and AGS treated cells using the Qiagen RNeasy Mini Kit (Qiagen, Hilden, Germany) following the manufacturer’s instructions. Samples were retro-transcribed using the iScript Advanced cDNA Synthesis Kit (Bio-Rad Laboratories, California, USA). Real-Time-PCRs analyzed cDNA samples for the evaluation of VEGFA and ANGPT2 expression. […] Relative quantification was performed using the ddCT method.

ANGPT2 mRNA = experiment: Real-time PCR of ANGPT2 mRNA expression in NCl–N87 and AGS cells; assay type: cell-based, human; conditions: 24 h, fMLF 10 nM, antagonists 1 or 2 μM, normalized to GAPDH, untreated = 1
Description: as §5, §6, §7

NCl–N87 cells [2] = experiment: Muse Ki67 proliferation assay in NCl–N87 cells; assay type: cell-based, human; conditions: NCl–N87, 5 μM, 24 h; control cells 81.3%
Description: Representative flow cytometry charts reporting percentage of Ki67 negative (blue) and positive (red) cells (panel A). Statistical charts reporting the results from three independent experiments and expressed as means ± SD (panel B). Statistical analysis was assessed by comparing the values obtained using single drug treatment to those of corresponding untreated cells and the combined treatments to those of the single treatments, *p < 0.05; **p < 0.001; ***p < 0.0001.
The Muse Ki67 Proliferation Assay was used with the Guava Muse Cell Analyzer according to manufacturer’s instructions (Luminex Corporation, Austin, USA). Briefly, the cells were stained after fixation and permeabilization procedures by using Hu Ki67 or Hu IgG1 control fluorochrome-conjugated antibodies to distinguish Ki67^+ or Ki67^− cells, respectively. The software provided the percentage of both Ki67(+) and Ki67(−) cells.

[3] = 48 h, read-out: AGS EC50 (μM ± S.E.M.) 48 h
[4] = read-out: AGS EC50 (μM ± S.E.M.) 24 h, 24 h
[5] = read-out: AGS EC50 (μM ± S.E.M.) 72 h, 72 h
[6] = 48 h, read-out: NCl–N87 EC50 (μM ± S.E.M.) 48 h
[7] = read-out: NCl–N87 EC50 (μM ± S.E.M.) 24 h, 24 h
[8] = read-out: NCl–N87 EC50 (μM ± S.E.M.) 72 h, 72 h

## CCCCCCc1cc2c(=O)c(-c3ccccc3OC)c(C)oc2cc1OCC(F)F [Compound 30, 7-(2,2-Difluoroethoxy)-6-hexyl-3-(2-methoxyphenyl)-2-methyl-4H-chromen-4-one]
In vitro; rat liver microsomes
  remaining at 0.5 h, 10 µM: 18%

## CCCCCCC(=O)Oc1cc2oc(C)c(-c3cccc(OC)c3)c(=O)c2cc1C [Compound 37b, 3-(3-Methoxyphenyl)-2,6-dimethyl-4-oxo-4H-chromen-7-yl heptanoate]
Human FPR1
  IC50: 21.9 ± 6.5 µM

## CCCc1cc2c(=O)c(-c3ccccc3OC)c(C)oc2cc1NC(C)=O [Compound 36, N-[3-(2-methoxyphenyl)-2-methyl-4-oxo-6-propyl-4H-chromen-7-yl]acetamide]
In vitro; rat liver microsomes
  remaining at 0.5 h, 10 µM: 15%

## CCCCCCc1cc2c(=O)c(-c3ccccc3OC)c(C)oc2cc1NC(C)=O [Compound 35a, N-[6-Hexyl-3-(2-methoxyphenyl)-2-methyl-4-oxo-4H-chromen-7-yl]acetamide]
In vitro; rat liver microsomes
  remaining at 0.5 h, 10 µM: 14%

## CCCCCCc1cc2c(=O)c(-c3cccc(OC)c3)c(C(F)(F)F)oc2cc1OC(C)=O [Compound 25b, 6-Hexyl-3-(3-methoxyphenyl)-4-oxo-2-(trifluoromethyl)-4H-chromen-7-yl acetate]
Human FPR1
  IC50: 0.16 ± 0.03 µM

## CCCCc1cc2c(=O)c(-c3ccccc3OC)c(C)oc2cc1OC(C)=O [Compound 28, 6-Butyl-3-(2-methoxyphenyl)-2-methyl-4-oxo-4H-chromen-7-yl acetate]
Human FPR1
  IC50: 0.8 ± 0.3 µM

## CCCc1cc2c(=O)c(-c3cccc(OC)c3)c(C)oc2cc1OC(C)=O [Compound 26b, 3-(3-Methoxyphenyl)-2-methyl-4-oxo-6-propyl-4H-chromen-7-yl acetate]
Human FPR1
  IC50: 0.15 ± 0.05 µM

## CCCc1cc2c(=O)c(-c3ccccc3OC)c(C)oc2cc1OC(=O)N(C)C [Compound 39, 3-(2-Methoxyphenyl)-2-methyl-4-oxo-6-propyl-4H-chromen-7-yl dimethylcarbamate]
In vitro; Liver
  remaining at 0.5 h, 10 µM: 10%
Human FPR1
  FPR1-HL60 (IC50, μM): practically inactive
  IC50: 28.9 ± 7.6 µM

## CCCCCCc1cc2c(=O)c(-c3ccccc3OC)c(C(F)(F)F)oc2cc1OC(C)=O [Compound 25a, 6-Hexyl-3-(2-methoxyphenyl)-4-oxo-2-(trifluoromethyl)-4H-chromen-7-yl acetate]
AGS cells; [3]
  EC50: 8 ± 0.1 µM
AGS cells; [4]
  EC50: 16.7 ± 0.7 µM
AGS cells; [5]
  EC50: 5.45 ± 3.45 µM
NCl–N87 cells [1]; [6]
  EC50: 10.2 ± 1 µM
NCl–N87 cells [1]; [7]
  EC50: 13.3 ± 1.88 µM
NCl–N87 cells [1]; [8]
  EC50: 2.65 ± 0.5 µM
VEGFA mRNA
  VEGFA mRNA expression: dose-dependent increase
ANGPT2 mRNA
  angiopoietin 2 (ANGPT2) mRNA expression: dose-dependent increase

## CCCCCCc1cc2c(=O)c(-c3ccccc3OC)c(C)oc2cc1OC(C)=O [Compound 24a, 6-Hexyl-3-(2-methoxyphenyl)-2-methyl-4-oxo-4H-chromen-7-yl acetate]
AGS cells; [3]
  EC50: 11 ± 1.91 µM
AGS cells; [4]
  EC50: 24.7 ± 4 µM
AGS cells; [5]
  EC50: 7.55 ± 1.75 µM
NCl–N87 cells [1]; [6]
  EC50: 8.65 ± 0.65 µM
NCl–N87 cells [1]; [7]
  EC50: 32.9 ± 2.95 µM
NCl–N87 cells [1]; [8]
  EC50: 11.5 ± 1.2 µM
NCl–N87 cells [2]
  percentage of Ki67(+) cells: 73.1%
VEGFA mRNA
  VEGFA mRNA expression: dose-dependent increase
ANGPT2 mRNA
  angiopoietin 2 (ANGPT2) mRNA expression: dose-dependent increase

## CCCCCc1cc2c(=O)c(-c3ccccc3OC)c(C)oc2cc1OC(C)=O [Compound 29, 3-(2-Methoxyphenyl)-2-methyl-4-oxo-6-pentyl-4H-chromen-7-yl acetate]
Human FPR1
  IC50: 0.4 ± 0.1 µM
